From patent publication US20240425514A1, “ALSTONINE DERIVATIVES AND SALTS THEREOF” (priority 2021, published 2024)
Entries after “also recorded” stand apart in the source; their conditions may differ. Structures can show the parent of a compound that is named as a salt.

Assays:
[1] = tested on: zebrafish; experiment: Social preference test in zebrafish, MK-801 model; type: in vivo, Danio rerio; conditions: for overall effect on all parameters of the social preference test: drug pretreatment, then water or MK-801 5 μM
Procedure: (§1) Here, the ability of alstonine salts to reverse schizophrenia-like symptoms produced by MK-801 in zebrafish was evaluated. The atypical antipsychotic olanzapine was used as a comparison.
(§2) Experiments were performed using male and female (50:50 ratio) short-fin wild-type zebrafish (4-month-old, 300-500 mg). Adult animals were obtained from a local commercial supplier (Delphis, R S, Brazil). The animals were maintained at Instituto de Ciências Básicas da Saúde in a light/dark cycle of 14/10 h with lights on at 7:00 a.m for at least two weeks before tests. Fish were kept in 40-L (30×46×33 cm) unenriched glass tanks with non-chlorinated water at a maximum density of five animals per liter. Tank water satisfied the controlled conditions required for zebrafish (26±2° C.; pH 7.0±0.3; dissolved oxygen at 7.0±0.4 mg/L; total ammonia at <0.01 mg/L; total hardness at 5.8 mg/L; alkalinity at 22 mg/L CaCO3; conductivity of 1,500-1,600 μS/cm) and was constantly filtered by mechanical, biological, and chemical filtration systems. Food was provided twice a day as commercial flake food (Poytara®, SP, Brazil) plus brine shrimp (Artemia salina). The sex of the animals was confirmed after euthanasia by dissecting and analyzing the gonads. For all experiments, no sex effects were observed, so data were pooled together. Animals were euthanized by hypothermic shock according to the AVMA Guidelines for the Euthanasia of Animals (Leary and Johnson, 2020).
(§3) MK-801 (dizocilpine) and sulpiride were purchased from Sigma-Aldrich (St. Louis, MO, USA); olanzapine was purchased from Selleck Chemicals. Alstonine hydrochloride, alstonine benzoate, and alstonine benzensulfonate were prepared as described herein. MK-801, olanzapine, and alstonine hydrochloride were dissolved in distilled water, with sonication in an ultrasonic bath for the latter. Sulpiride, alstonine benzoate, and alstonine benzensulfonate were dissolved in 100% DMSO; stock solutions were diluted to achieve a final DMSO concentration of 1% for the highest concentration. MK-801 solutions were freshly prepared, while alstonine stock solutions were kept refrigerated for up to five days. Exposure solutions were renovated halfway through the experiment, with a maximum of four fish exposed to the same solution.
(§4) Different sets of animals were used for each experiment, totaling 600 zebrafish in the study (plus 200 zebrafish serving as stimulus animals). Animals were individually exposed to water or alstonine solutions at 2.5, 5 or 10 mg/L in 500-mL beakers containing 200-mL solution for 20 min (n=15). These concentrations were extrapolated from mice studies. Fish were then transferred to another beaker containing either water or MK-801 at 5 μM and remained there for another 20 minutes.
(§5) The animals were allocated to the experimental groups following block randomization procedures to counterbalance for home tank, sex, and day of testing. The order for outcome assessment was also randomized and care was taken to counterbalance the test apparatuses across the experimental groups. Outcome assessors were blind to the experimental groups, as well as the experimenters responsible for taking the animal and placing it in the test apparatus.
The protocol for the social preference test in zebrafish followed the method described by Benvenutti et al. (2021). After exposure, animals were placed for 7 min in a tank (30×10×15 cm) flanked by two identical tanks (15×10×13 cm) either empty (neutral stimulus) or containing 10 unknown zebrafish (social stimulus). All three tanks were filled with water in standard conditions at a level of 10 cm. The position of the social stimulus (right or left) was counterbalanced throughout the tests. The water in the test tanks was changed between every animal. To assess social behavior, the test apparatus was virtually divided into three vertical zones (interaction, middle, and neutral). Animals were habituated to the apparatus for 2 min and then analyzed for the last 5 min. […]

[2] = tested on: zebrafish; experiment: Open tank test in zebrafish, MK-801 model; type: in vivo, Danio rerio; conditions: for overall effect on the analyzed parameters of the open tank test: drug pretreatment
Procedure: as §1, §2, §3, §4, §5
The protocol for the open tank test followed the method described by Benvenutti et al. (2021). Immediately after the social preference test, animals were placed in the center of the open tank arena and recorded for 10 min. The apparatus consisted of a white circular arena (24 cm in diameter and 8 cm in height, 2 cm water level). The apparatus format and the acquisition of videos from the top view allows the evaluation of locomotor parameters related to stereotypic behavior (circular movements and absolute turn angle). The water was changed between every animal. The following outcomes were automatically scored using ANY-Maze software (Stoelting Co., Wood Dale, IL, USA): total distance traveled, absolute turn angle, number of clockwise rotations, and immobility time. […]

[3] = molecular target: T1, D1 (Homo sapiens, UniProt P21728); conditions: cortex membranes; preliminary binding studies; cited from earlier work
T1 construct: host or cells: cortex membranes (tissue)
T1 sequence (P21728 whole entry): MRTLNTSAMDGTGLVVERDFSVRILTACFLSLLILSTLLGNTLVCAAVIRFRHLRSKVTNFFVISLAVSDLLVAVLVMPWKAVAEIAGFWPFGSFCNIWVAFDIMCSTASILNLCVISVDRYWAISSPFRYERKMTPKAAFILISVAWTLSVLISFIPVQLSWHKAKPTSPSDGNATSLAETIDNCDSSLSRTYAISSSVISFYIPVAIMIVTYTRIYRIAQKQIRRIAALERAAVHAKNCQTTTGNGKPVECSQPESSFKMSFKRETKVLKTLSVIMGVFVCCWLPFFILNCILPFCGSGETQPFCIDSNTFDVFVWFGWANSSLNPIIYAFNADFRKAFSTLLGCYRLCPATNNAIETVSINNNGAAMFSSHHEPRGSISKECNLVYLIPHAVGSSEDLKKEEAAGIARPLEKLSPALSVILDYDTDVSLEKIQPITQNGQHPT

[4] = tested on: D2, and 5-HT2A receptors; conditions: cortex membranes; preliminary binding studies; cited from earlier work
[5] = tested on: mice; conditions: 0.5-1.0 mg/kg ip; cited from earlier work
[6] = tested on: dopamine (DA) uptake; conditions: mouse striatal synaptosomes; cited from earlier work
[7] = MK-801 5 μM vs control, experiment with olanzapine
[8] = MK-801 5 μM vs controls, experiment with sulpiride

**Q.** What does the source list for `COC(=O)C1=CO[C@@H](C)[C@@H]2Cn3ccc4c5ccccc5nc-4c3C[C@H]12` [Alstonine hydrochloride]?
**A.** overall effect on all parameters of the social preference test [1]: potentiated the effects of MK-801 in the social preference test; time in the zone of interaction ([1]; fish exposed 20 min to drug, then 20 min to water or MK-801 5 μM, main effect of drug pretreatment, two-way ANOVA): nonspecifically reduced the time in the zone of interaction at the intermediate and highest concentrations; number of crossings ([1]; interaction between drug pretreatment and MK-801 5 μM, Bonferroni post hoc): potentiated the effect of MK-801 at the intermediate concentration

**Q.** For `C[C@]12N[C@H](Cc3ccccc31)c1ccccc12` [MK-801, dizocilpine], which absolute turn angle ([2]; main effect of MK-801 5 μM) is on record?
**A.** decreased

**Q.** What about the clockwise rotations ([2]; main effect of MK-801 5 μM) of the same molecule?
**A.** decreased

**Q.** And the distance traveled ([2]; main effect of MK-801 5 μM)?
**A.** decreased the distance traveled

**Q.** What about the immobility time ([2]; main effect of MK-801 5 μM) of the same molecule?
**A.** increased the immobility time

**Q.** And the number of crossings [1, 7]?
**A.** increased

**Q.** What about the “time in the social interaction zone” value [1, 7] of the same molecule?
**A.** spent less time in the social interaction zone

**Q.** And the total distance traveled [1, 7]?
**A.** increased the total distance traveled

**Q.** And the immobility time [1, 8]?
**A.** increased

**Q.** And the number of crossings [1, 8]?
**A.** increased the number of crossings

**Q.** Which “overall effect on the analyzed parameters of the open tank test” value ([2]; then water or MK-801 5 μM) does the source give for `CCN1CCCC1CNC(=O)c1cc(S(N)(=O)=O)ccc1OC` (stereo not shown) [Sulpiride, sulpiride] here?
**A.** no significant effects on any of the analyzed parameters

**Q.** What about the “overall effect on all parameters of the social preference test” value [1] of the same molecule?
**A.** devoid of effects on all parameters

**Q.** Which results are given for `COC(=O)C1=COC(C)C2C[n+]3ccc4c([nH]c5ccccc54)c3CC12.O=S(=O)([O-])c1ccccc1` (stereo not shown) [alstonine benzensulfonate, Alstonine benzenesulfonate]?
**A.** immobility time ([2]; drug pretreatment 20 min, then water or MK-801 5 μM, interaction with MK-801, post hoc): the intermediate and highest concentrations prevented the increase in immobility time induced by MK-801; also recorded: subgroup of animals that respond to alstonine benzensulfonate regarding immobility time to the level of controls; distance traveled ([2]; drug pretreatment 20 min, then water or MK-801 5 μM, main effect of drug): trend for a main effect on total distance; clockwise rotations ([2]; drug pretreatment 20 min, then water or MK-801 5 μM, main effect or interaction with MK-801): significant interaction; also recorded: preventing (at the highest concentrations) the effects of MK-801 on clockwise rotations; overall effect on the analyzed parameters of the open tank test ([2]; then water or MK-801 5 μM): possess antipsychotic-like properties similar to olanzapine; overall effect on all parameters of the social preference test [1]: devoid of statistically significant effects

**Q.** With `COC(=O)C1=COC(C)C2C[n+]3ccc4c([nH]c5ccccc54)c3CC12.O=C([O-])c1ccccc1` (stereo not shown) [alstonine benzoate, Alstonine benzoate] as the molecule, how does the “overall effect on all parameters of the social preference test” value [1] read?
**A.** devoid of statistically significant effects

**Q.** What about the immobility time ([1]; interaction between drug pretreatment and MK-801 5 μM) of the same molecule?
**A.** trend for alstonine benzoate to prevent the effects of MK-801 on immobility time in the highest concentration tested

**Q.** Which “effect on [3H]SCH23390 binding” value [3] does the source give for `COC(=O)C1=CO[C@@H](C)[C@@H]2Cn3ccc4c5ccccc5nc-4c3C[C@H]12` [alstonine] here?
**A.** does not affect

**Q.** What about the “effect on [3H]Spiperone binding” value [4] of the same molecule?
**A.** does not affect

**Q.** What about the “antipsychotic properties in mice models” value [5] of the same molecule?
**A.** shows antipsychotic properties

**Q.** What about the DA uptake [6] of the same molecule?
**A.** increasing DA uptake
